Paper PMC3517777, “Phase I study of TP300 in patients with advanced solid tumors with pharmacokinetic, pharmacogenetic and pharmacodynamic analyses” (BMC Cancer, 2012)

Legend:
[1] = tested on: range of tumour types in vitro; parameters: method as in PMID 19495753; conditions: cited from earlier work
[2] = tested on: tumours over-expressing the breast cancer resistance protein [BCRP]; parameters: method as in PMID 19495753; conditions: unlike SN38; cited from earlier work
advanced solid tumors = experiment: Antitumour activity (RECIST) in Phase I patients; type: in vivo, human
Procedure: (§1) The MTD was the dose level below that at which ≥ 2 out of 3–6 patients experienced a DLT. Radiologic assessment of disease was performed every 2 cycles. Patients could remain on treatment if there was evidence of clinical benefit but were withdrawn from the study upon clinical or radiologic progression, unacceptable toxicity or withdrawal of consent.

[3] = Single and repeat dose toxicity studies (preclinical); type: in vivo; conditions: most sensitive of the two species tested; equals 6 mg/m^2
Procedure: (§2) The starting dose of 1 mg/m^2 was derived from single and repeat dose toxicity studies and represented one sixth of 0.3 mg/kg (6 mg/m^2), a dose tolerated without evidence of serious, irreversible or life-threatening toxicity in the most sensitive of the two species tested. Doses were doubled in subsequent cohorts until grade ≥2 toxicity was observed, whereupon a modified Fibonacci dose escalation scheme was used. In each cohort the first patient was required to complete 1 cycle before subsequent patients were entered. Intra-patient dose-escalation was not allowed.

neutrophil count = experiment: Exposure versus fall in nadir neutrophil count, sigmoid Emax model; type: in vivo, human; conditions: 1-nadir/pre-observation neutrophils in cycle 1 vs total AUC of TP3076 plus TP3011, sigmoid Emax fit
Procedure: Pharmacokinetic parameters derived from plasma concentration-time data of TP3076 or TP3011 by non-compartmental methods using WinNonlin (version 5.1; Pharsight Corp), included maximal plasma concentration (Cmax) and time of Cmax (Tmax), apparent plasma elimination half-life (t1/2), and the area under the curve (AUC). The urinary excretion ratio (fe) of TP3076 and TP3011 was calculated from the urinary concentration and volume up to 48 hours after administration, and the administration dose. The linearity of Cmax and AUC was determined with linear regression, analysis of variance and power model analysis. The sum of the AUCs of TP3076 and TP3011 was plotted against percentage (%) fall in nadir neutrophil count to explore the relationship between exposure and myelosuppression as a measure of anti-proliferative effect and a sigmoid Emax model fitted to the data:
where γ is the Hill equation constant and EAUC50 is the AUC associated with 50% of the maximal effect.

[4] = Phase I dose escalation of TP300: toxicity (CTCAE v3.0), DLT, MTD; type: in vivo, human
Procedure: TP300 was given as a 1-hour intravenous (i.v.) infusion, by peripheral venous catheter, every 3 weeks.
as §2, §1
Toxicity was assessed weekly and graded using the National Cancer Institute Common Toxicity Criteria (CTCAE) version 3.0. DLT was defined as the occurrence of any of the following adverse events: grade 4 thrombocytopenia; febrile neutropenia or grade 4 neutropenia > 5 days duration; grade 4 diarrhoea not reduced to grade 1 within 2 days of appropriate therapy; other gastro-intestinal toxicities (e.g. vomiting, nausea, stomatitis) ≥ grade 3 and not reduced to grade 1 within 2 days of appropriate therapy; any other non-haematologic toxicities ≥ grade 3 (excluding alopecia).

[5] = tested on: peripheral blood mononuclear cells (PBMCs); experiment: Single cell gel electrophoresis (comet) assay of DNA strand breaks; type: in vivo, human; conditions: 1 hour post first dose, across all doses
Procedure: Analysis of the ability of TP300 to induce DNA strand breaks was performed on peripheral blood mononuclear cells (PBMCs), pre-dose, 1, 3 and 24 hours post cycle 1. A validated single cell gel electrophoresis (comet) assay was used to assess DNA single-strand breaks. An average of 50 PBMC cells/time-point were analysed and the tail moment (TM) calculated, as the product of the percentage of DNA in the comet tail and the distance between head and tail distributions; higher TM values reflect greater DNA strand breakage. Statistical analyses were not performed due to the limited number of subjects/samples per cohort.

[6] = suspected treatment related adverse events within cycle 1, N = 32, all doses 1-12 mg/m^2

In the case of CCCCCN1C=Nc2cccc3nc4c(c1c23)Cn1c-4cc2c(c1=O)COC(=O)[C@@]2(CC)OC(=O)CN(C)C(=O)CN [TP300, glycine,glycyl-N-methyl-,(9S)-9-ethyl-9,10,13,15-tetrahydro-10,13-dioxo-1-pentyl-1H,12H-pyrano[3'',4'':6′,7′]indolizino[2′,1′:5,6]pyrido[4,3,2-de]quinazolin-9-yl ester, hydro-chloride], the “activity across a range of tumour types in vitro” value [1] is listed as “activity at nanomolar concentrations”, the “activity in tumours over-expressing BCRP” value [2] is listed as “appears active” and the “patients with stable disease as best response” value (advanced solid tumors; 1 each at 4, 8 and 12 mg/m^2 and 3 at 10 mg/m^2) is listed as “six”. For the same compound, the “objective response as determined by RECIST” value (advanced solid tumors; 32 patients, 1-12 mg/m^2) was “no complete or partial responses”, the “duration of stable disease” value (advanced solid tumors; six patients with stable disease) was 1.5-5 months and the “dose tolerated without evidence of serious, irreversible or life-threatening toxicity” value [3] was 0.3 mg/kg. The “EAUC50 (AUC associated with 50% of the maximal effect)” value (neutrophil count) was 1.31, the “γ (Hill equation constant)” value (neutrophil count) was 0.862 and the “DLTs (patients with DLT / patients dosed)” value ([4]; 10 mg/m^2) was 3/12. The “DLTs (patients with DLT / patients dosed)” value ([4]; 12 mg/m^2) was 2/4, the “MTD (maximum tolerated dose)” value ([4]; 1-hour i.v. infusion 3-weekly, patients with advanced solid tumors) was 10 mg/m^2 and the “worst grade of diarrhoea” value ([4]; 8 patients developed diarrhoea, all doses) was no more than 2 grade. For the same compound, the “time to diarrhoea after TP300 treatment, average” value ([4]; 8 patients with diarrhoea) was 9.5 days, the “time to diarrhoea after TP300 treatment, range” value ([4]; 8 patients with diarrhoea) was 1 to 27 days and the cholinergic effects ([4]; 32 patients, all doses) was “no patient experienced cholinergic effects”. For the same compound, the “patients discontinued due to toxicity” value ([4]; 32 patients, all doses) was 4 patients, the treatment-related deaths ([4]; 32 patients, all doses) was “no treatment-related deaths” and the “recommended Phase II starting dose” value ([4]; cycle 1) was 8 mg/m^2. For the same compound, the “recommended Phase II dose on subsequent cycles” value ([4]; escalation if initial treatment is well tolerated) was 10 mg/m^2, the “Anaemia, All grade” value [4, 6] was 6 ( 19) No. (%) and the “Anaemia, Grade 3” value [4, 6] was 2 ( 6) No. (%). For the same compound, the “Back pain, All grade” value [4, 6] was 1 ( 3) No. (%), the “Back pain, Grade 3” value [4, 6] was 1 ( 3) No. (%) and the “Chills, All grade” value [4, 6] was 2 ( 6) No. (%). For the same compound, the “Chills, Grade 3” value [4, 6] was 1 ( 3) No. (%), the “Diarrhea, All grade” value [4, 6] was 8 ( 25) No. (%) and the “Diarrhea, Grade 3” value [4, 6] was 0 (0) No. (%). The “Dyspnoea, All grade” value [4, 6] was 1 ( 3) No. (%), the “Dyspnoea, Grade 3” value [4, 6] was 1 ( 3) No. (%) and the “Febrile neutropenia, All grade” value [4, 6] was 2 ( 6) No. (%). For the same compound, the “Febrile neutropenia, Grade 3” value [4, 6] was 2 ( 6) No. (%), the “Hepatorenal failure, All grade” value [4, 6] was 1 ( 3) No. (%) and the “Hepatorenal failure, Grade 3” value [4, 6] was 1 ( 3) No. (%). The “Lethargy, All grade” value [4, 6] was 12 ( 38) No. (%), the “Lethargy, Grade 3” value [4, 6] was 4 ( 13) No. (%) and the “Leukopenia, All grade” value [4, 6] was 3 ( 9) No. (%). For the same compound, the “Leukopenia, Grade 3” value [4, 6] was 3 ( 9) No. (%), the “Nausea, All grade” value [4, 6] was 13 ( 41) No. (%) and the “Nausea, Grade 3” value [4, 6] was 0 (0) No. (%). For the same compound, the “Neutropenia, All grade” value [4, 6] was 6 ( 19) No. (%), the “Neutropenia, Grade 3” value [4, 6] was 6 ( 19) No. (%) and the “Neutropenic sepsis, All grade” value [4, 6] was 1 ( 3) No. (%). For the same compound, the “Neutropenic sepsis, Grade 3” value [4, 6] was 1 ( 3) No. (%), the “Syncope, All grade” value [4, 6] was 1 ( 3) No. (%) and the “Syncope, Grade 3” value [4, 6] was 1 ( 3) No. (%). For the same compound, the “Thrombocytopenia, All grade” value [4, 6] was 3 ( 9) No. (%), the “Thrombocytopenia, Grade 3” value [4, 6] was 3 ( 9) No. (%) and the “Vomitting, All grade” value [4, 6] was 9 ( 28) No. (%). For the same compound, the “Vomitting, Grade 3” value [4, 6] was 0 (0) No. (%), the “increase of DNA strand breaks vs pre-treatment” value [5] was “approximately 2 fold” and the “mean tail moment (TM)” value ([5]; pre-treatment mean 0.69) was 1.65.
